Source: ChEMBL document CHEMBL5137022, “Antitumor Activity of Rutaecarpine in Human Colorectal Cancer Cells by Suppression of Wnt/β-Catenin Signaling” (J Nat Prod, 2022)
The source made the active and inactive calls. No cut-off for these calls is given here.

Experiments:
RKO = test: Antiproliferative activity against human RKO cells harboring wild type beta-catenin assessed as reduction in cell viability measured after 72 hrs by SRB assay; format: functional, cell-based
HCT-15 = test: Antiproliferative activity against human HCT-15 cells harboring wild type beta-catenin assessed as reduction in cell viability measured after 72 hrs by SRB assay; format: functional, cell-based; details: HCT-15, 72 h
HCT-116 = test: Antiproliferative activity against human HCT-116 cells harboring beta-catenin mutant assessed as reduction in cell viability measured after 72 hrs by SRB assay; format: functional, cell-based; details: HCT-116, 72 h
LS174T [1] = test: Antiproliferative activity against human LS174T cells harboring beta-catenin mutant assessed as reduction in cell viability measured after 72 hrs by SRB assay; format: functional, cell-based
LS174T [2] = test: Downregulation of beta-catenin expression in human LS174T cells at 2.5 to 20 uM incubated for 24 hrs by Western blot analysis; format: functional, cell-based; details: dose 2.5-20 µM
LS174T [3] = test: Downregulation of c-Myc expression in human LS174T cells at 2.5 to 20 uM incubated for 24 hrs by Western blot analysis; format: functional, cell-based; details: dose 2.5-20 µM
LS174T [4] = test: Downregulation of cyclin D1 expression in human LS174T cells at 2.5 to 20 uM incubated for 24 hrs by Western blot analysis; format: functional, cell-based; details: dose 2.5-20 µM
LS174T [5] = test: Induction of cell cycle arrest in human LS174T cells assessed as accumulation of cells at sub-G1 phase at 5 uM measured after 24 hrs by RNase A/propidium iodide staining based flow cytometric analysis (reference value: 1.3 %); format: functional
LS174T [6] = test: Induction of cell cycle arrest in human LS174T cells assessed as accumulation of cells at G2/M phase at 5 uM measured after 24 hrs by RNase A/propidium iodide staining based flow cytometric analysis (reference value: 12.2 %); format: functional
LS174T [7] = test: Induction of cell cycle arrest in human LS174T cells assessed as accumulation of cells at G0/G1 phase at 10 uM measured after 24 hrs by RNase A/propidium iodide staining based flow cytometric analysis (reference value: 71.7 %); format: functional
LS174T [8] = test: Induction of cell cycle arrest in human LS174T cells assessed as accumulation of cells at G2/M phase at 10 uM measured after 24 hrs by RNase A/propidium iodide staining based flow cytometric analysis (reference value: 12.2 %); format: functional
LS174T [9] = test: Induction of cell cycle arrest in human LS174T cells assessed as accumulation of cells at S phase at 20 uM measured after 24 hrs by RNase A/propidium iodide staining based flow cytometric analysis (reference value: 14.5 %); format: functional
LS174T [10] = test: Induction of cell cycle arrest in human LS174T cells assessed as downregulation of cyclin E expression measured after 24 hrs by Western blot analysis; format: functional, cell-based; details: dose 5-20 µM, DDE = dose-dependent effect
LS174T [11] = test: Induction of cell cycle arrest in human LS174T cells assessed as downregulation of CDK4 expression measured after 24 hrs by Western blot analysis; format: functional, cell-based; details: dose 5-20 µM, DDE = dose-dependent effect
LS174T [12] = test: Induction of cell cycle arrest in human LS174T cells assessed as downregulation of CDK6 expression measured after 24 hrs by Western blot analysis; format: functional, cell-based; details: dose 5-20 µM, DDE = dose-dependent effect
LS174T [13] = test: Induction of cell cycle arrest in human LS174T cells assessed as accumulation of cells at sub-G1 phase at 20 uM measured at 36 hrs by RNase A/propidium iodide staining based flow cytometric analysis (reference value: 0.7 %); format: functional
LS174T [14] = test: Induction of cell cycle arrest in human LS174T cells assessed as accumulation of cells at S phase at 20 uM measured at 36 hrs by RNase A/propidium iodide staining based flow cytometric analysis (reference value: 11.4 %); format: functional
LS174T [15] = test: Induction of cell cycle arrest in human LS174T cells assessed as accumulation of cells at G2/M phase at 20 uM measured at 48 hrs by RNase A/propidium iodide staining based flow cytometric analysis (reference value: 12.9 %); format: functional
LS174T [16] = test: Induction of apoptosis in human LS174T cells assessed as total cell death at 30 uM measured after 48 hrs by AnnexinV-FITC/PI staining based flowcytometry analysis relative to control; format: functional
LS174T [17] = test: Induction of apoptosis in human LS174T cells assessed as total cell death at 40 uM measured after 48 hrs by AnnexinV-FITC/PI staining based flowcytometry analysis relative to control; format: functional
LS174T [18] = test: Induction of apoptosis in human LS174T cells assessed as upregulation of cleaved caspase-3 expression measured after 48 hrs by Western blot analysis; format: functional, cell-based; details: dose 20-40 µM, DDE = dose-dependent effect
LS174T [19] = test: Induction of apoptosis in human LS174T cells assessed as downregulation of survivin expression measured after 48 hrs by Western blot analysis; format: functional, cell-based; details: dose 20-40 µM, DDE = dose-dependent effect
LS174T [20] = test: Downregulation of N-cadherin expression in human LS174T cells at up to 8 uM incubated for 24 hrs by Western blot analysis; format: functional, cell-based
LS174T [21] = test: Antitumor activity against human LS174T cells xenografted in BALB/c nude mouse assessed as reduction in tumor volume at 30 mg/kg, ip administered 3 times per week for 21 days by electronic caliper method; format: functional; parameters: scale not given: the % may be the effect or the level left; details: time 21 day
LS174T [22] = test: Antitumor activity against human LS174T cells xenografted in BALB/c nude mouse assessed as reduction in tumor weight at 10 mg/kg, ip administered 3 times per week for 21 days by electronic caliper method; format: functional; parameters: scale not given: the % may be the effect or the level left; details: time 21 day
LS174T [23] = test: Antitumor activity against human LS174T cells xenografted in BALB/c nude mouse assessed as reduction in tumor weight at 30 mg/kg, ip administered 3 times per week for 21 days by electronic caliper method; format: functional; parameters: scale not given: the % may be the effect or the level left; details: time 21 day
[24] = Toxicity in BALB/c nude mouse xenografted with human LS174T cells assessed as effect on body weight at 30 mg/kg, IP administered 3 times per week for 21 days; format: organism-based; details: in vivo, 504 h, time 21 day
Mus musculus [25] = test: Downregulation of c-myc protein expression in tumor of BALB/c mouse xenografted with human LS174T cells at 10 to 30 mg/kg, ip administered 3 times per week for 21 days by Western blot analysis; format: functional, organism-based; details: dose 10-30 mg/kg, time 21.0 day
Mus musculus [26] = test: Downregulation of survivin expression in tumor of BALB/c mouse xenografted with human LS174T cells at 10 to 30 mg/kg, ip administered 3 times per week for 21 days by Western blot analysis; format: functional, organism-based; details: dose 10-30 mg/kg, time 21.0 day
Mus musculus [27] = test: Downregulation of snail protein expression in tumor of BALB/c mouse xenografted with human LS174T cells at 10 to 30 mg/kg, ip administered 3 times per week for 21 days by Western blot analysis; format: functional, organism-based; details: dose 10-30 mg/kg, time 21.0 day
Mus musculus [28] = test: Downregulation of N-cadherin expression in tumor of BALB/c mouse xenografted with human LS174T cells at 10 to 30 mg/kg, ip administered 3 times per week for 21 days by Western blot analysis; format: functional, organism-based; details: dose 10-30 mg/kg, time 21.0 day
Mus musculus [29] = test: Downregulation of Ki-67 expression in tumor of BALB/c mouse xenografted with human LS174T cells at 10 to 30 mg/kg, ip administered 3 times per week for 21 days by immunohistochemical based analysis; format: functional, organism-based; details: dose 10-30 mg/kg, time 21.0 day
Mus musculus [30] = test: Downregulation of N-cadherin expression in tumor of BALB/c mouse xenografted with human LS174T cells at 10 to 30 mg/kg, ip administered 3 times per week for 21 days by immunohistochemical based analysis; format: functional, organism-based; details: dose 10-30 mg/kg, time 21.0 day
LS174T [31] = test: Induction of apoptosis in human LS174T cells assessed as increase in early apoptotic cells at 20 to 40 uM measured after 48 hrs by AnnexinV-FITC/PI staining based flowcytometry analysis; format: functional, cell-based; details: dose 20-40 µM

Question: What does the source list for `O=c1c2ccccc2nc2n1CCc1c-2[nH]c2ccccc12` [RUTAECARPINE]?
Answer: IC50 (RKO): > 50 µM; IC50 (HCT-15): > 50 µM; IC50 (HCT-116): 31.1 µM; IC50 (LS174T [1]): 6.1 µM; Activity (LS174T [2]): Active; Activity (LS174T [3]): Active; Activity (LS174T [4]): Active; Activity (LS174T [5]): 1.4%; Activity (LS174T [6]): 11.8%; Activity (LS174T [7]): 81.6%; Activity (LS174T [8]): 9.6%; Activity (LS174T [9]): 4.1%; Activity (LS174T [10]): Dde; Activity (LS174T [11]): Dde; Activity (LS174T [12]): Dde; Activity (LS174T [13]): 6.1%; Activity (LS174T [14]): 2.1%; Activity (LS174T [15]): 4.4%; Activity (LS174T [16]): 65.7%; Activity (LS174T [17]): 85.4%; Activity (LS174T [18]): Dde; Activity (LS174T [19]): Dde; Activity (LS174T [20]): Active; Activity (LS174T [21]): 54.6%; Activity (LS174T [22]): 68.3%; Activity (LS174T [23]): 41.5%; Activity [24]: Non-Toxic; Activity (Mus musculus [25]): Active; Activity (Mus musculus [26]): Active; Activity (Mus musculus [27]): Active; Activity (Mus musculus [28]): Active; Activity (Mus musculus [29]): Active; Activity (Mus musculus [30]): Active; Activity (LS174T [31]): Active
